Where “and” joins values, the source holds several entries; their conditions need not be identical. Identical values can stand only once. Like-named read-outs stand apart in the source and are kept apart here.
Columns and labels:
[1] = test system: P. digitatum; assay: Immersion washing of oranges with various solutions, decay; type: in vivo, Penicillium digitatum
[2] = test system: P. digitatum; assay: Effect of pH and bicarbonate concentration on decay of oranges; type: in vivo, Penicillium digitatum
[3] = test system: sour rot (Geotrichum Candidum); assay: Effect of treatments on sour rot decay of lemons; type: in vivo
[4] = test system: Green Mold; assay: Washing of oranges inoculated with Green Mold, decay; type: in vivo, Penicillium digitatum; conditions: oranges infected by green mold; four groups of 25; pressure washer, or soak tank for soda ash, sodium bicarbonate
[5] = test system: Green Mold; conditions: 35 seconds, 2 weeks at 50° F.
[6] = test system: Green Mold; conditions: 35 seconds, 2 weeks at 50° F.; remark: listed apart in the source
[7] = test system: P. digitatum (M6R strain); assay: High pressure washing of inoculated navel oranges with sodium hypochlorite solution, no bicarbonate; type: in vivo, Penicillium digitatum; conditions: 2 weeks at 55° F.; for % Fruit Decay (Average): navel oranges; for Total Decay: number of decayed navel oranges; for No decay: number of navel oranges without decay
[8] = test system: P. digitatum isolate M6R; conditions: lemons, 1 or 3% wt/vol, 200 micrograms/ml free NaOCl, pH 8.3, controls 97%
[9] = test system: P. digitatum isolate M6R; conditions: oranges, 1 or 3% wt/vol, 200 micrograms/ml free NaOCl, pH 8.3, controls 97%
[10] = test system: P. digitatum; conditions: fresh oranges and lemons; pressure washing; FIG. 6
[11] = test system: P. digitatum; conditions: lemons inoculated 48 hours before treatment; immersion; cited from earlier work
[12] = test system: P. digitatum (M6R strain); assay: SOPP, sodium bicarbonate & chlorine treatment, navel orange decay control; type: in vivo, Penicillium digitatum
[13] = first set of data, four groups of 25
[14] = second set of data, dipping, pH 11.4, alone
[15] = second set of data, four groups of 25
[16] = high pressure (about 300 psi) wash
[17] = low pressure (about 95 psi) wash
[18] = second set of data, dipping, pH 7.5, alone
[19] = pressure washer (100 psi), navel oranges, replicates R1-R4, 2 weeks at 55° F., listed as Chlorine @ 200 ppm

## O=C([O-])O.[Na+] [BCB 0.25% alone, sodium bicarbonate]
[1]; in vivo
  Mean Decay (%): 46.000%

## O=C([O-])[O-].[Na+].[Na+] [0.3 M soda ash, pH 11.4, sodium carbonate]
[2]; [13]
  Mean Decay (%): 10.000%
[2]; [14]
  Mean Decay (%): 10.000%

## [Na+].[O-]Cl [NaOCl 200 ppm pH 7.5 alone at 80° F., sodium hypochlorite]
[3]; [13]
  Mean Decay (%): 18.112%
[3]; [15]
  Mean Decay (%): 18.112%
[4]
  Mean Decay (%): 17.000%

## O=C([O-])O.[Na+] [0.3 M sodium bicarbonate, pH 8.4, sodium bicarbonate]
[2]; [13]
  Mean Decay (%): 43.000%
[2]; second set of data, dipping, pH 8.4, alone
  Mean Decay (%): 43.000%

## O=C([O-])[O-].[Na+].[Na+] [Soda ash 3% w/v at 80° F., sodium carbonate]
[3]; [13]
  Mean Decay (%): 10.638%
[3]; [15]
  Mean Decay (%): 10.856%
[5]; no pressure washing, dip
  Decay (%) Lemons: 6.8%
[4]
  Mean Decay (%): 11.000%
[6]; no pressure washing, dip
  Decay (%) Oranges: 13.0%

## [Na+].[O-]Cl [Low Cl, sodium hypochlorite]
[7]; [16]
  % Fruit Decay (Average): 98.5%
  Total Decay: 201
  No decay: 3
[7]; [17]
  % Fruit Decay (Average): 99.5%
  Total Decay: 199
  No decay: 1

## [O][Cl+][O-] [Oxine 75 ppm alone at 80° F., chlorine dioxide]
[3]; first set of data, four groups of 25, 80° F.
  Mean Decay (%): 22.338%
[3]; second set of data, four groups of 25, listed as Oxine 75 ppm 80° F.
  Mean Decay (%): 22.358%
[4]
  Mean Decay (%): 14.000%

## O=C([O-])O.[Na+] [0.15 M sodium bicarbonate, pH 7.5, sodium bicarbonate]
[2]; [13]
  Mean Decay (%): 65.000%
[2]; [18]
  Mean Decay (%): 65.000%

## O=C([O-])O.[Na+] [0.3 M sodium bicarbonate, pH 7.5, sodium bicarbonate]
[2]; [13]
  Mean Decay (%): 41.000%
[2]; [18]
  Mean Decay (%): 41.000%

## [Na+].[O-]Cl [High Cl, sodium hypochlorite]
[7]; [16]
  % Fruit Decay (Average): 97.5%
  Total Decay: 197
  No decay: 5
[7]; [17]
  % Fruit Decay (Average): 98%
  Total Decay: 196
  No decay: 4

## O=C([O-])[O-].[Na+].[Na+] [0.15 M soda ash, pH 11.4, sodium carbonate]
[2]; [13]
  Mean Decay (%): 31.000%
[2]; [14]
  Mean Decay (%): 31.000%

## OCl [HOCl pH 11.4, HOCl]
[2]; [13]
  Mean Decay (%): 95.000%
[2]; [14]
  Mean Decay (%): 95.000%

## O=C([O-])O.[Na+] [sodium bicarbonate]
[8]; HPSW at 2150 kPa (320 psi)
  mean decay: 17%
[8]; tank treatment 35 seconds
  mean incidence of decay: 22%
[9]; HPSW at 2150 kPa (320 psi)
  mean decay: 20%
[9]; tank treatment 35 seconds
  mean incidence of decay: 19%

## O=C([O-])O.[Na+] [BCB 1% alone, sodium bicarbonate]
[1]; in vivo
  Mean Decay (%): 13.000%

## O=C([O-])O.[Na+] [BCB 3% alone, sodium bicarbonate]
[1]; in vivo
  Mean Decay (%): 7.000%
[10]
  decay control: ~100%

## O=C([O-])O.[Na+] [BCB 0.5% alone, sodium bicarbonate]
[1]; in vivo
  Mean Decay (%): 27.000%
[5]; high pressure washing
  Decay (%) Lemons: 55.3%
[5]; low pressure washing
  Decay (%) Lemons: 66.2%
[5]; no pressure washing, dip
  Decay (%) Lemons: 45.1%
[6]; high pressure washing
  Decay (%) Oranges: 76.3%
[6]; low pressure washing
  Decay (%) Oranges: 82.7%
[6]; no pressure washing, dip
  Decay (%) Oranges: 56.9%

## [O][Cl+][O-] [Oxine 200 ppm alone at 80° F., chlorine dioxide]
[3]; first set of data, four groups of 25, listed as Ozine 200 ppm, alone 80° F.
  Mean Decay (%): 10.818%
[3]; second set of data, four groups of 25, listed as Oxine 200 ppm 80° F.
  Mean Decay (%): 10.878%
[4]
  Mean Decay (%): 18.000%

## O=C([O-])[O-].[Na+].[Na+] [sodium carbonate]
[11]
  reduction of incidence of infections from wounds: more than 90%

## [Na+].[O-]Cl [HOCl 200 ppm alone, sodium hypochlorite]
[1]; immersion, oranges, mean of four samples of 25
  Mean Decay (%): 88.000%
[12]; 100 psi wash, navel oranges (Table 10)
  Mean Decay (%): 99.3% (a)
[12]; 100 psi wash, navel oranges, relative to inoculated control
  Decay Control (%): 0.0%
[12]; pressure washer (100 psi), navel oranges, mean of four replicates
  % Decay, Mean %: 99.3%
[12]; [19]
  # Decay: 105 and 104 and 95 and 98
  # Healthy: 0 and 1 (3×)
  % Decay: 100.0% and 99.0% (3×)

## CC/C=C\CC1C(=O)CCC1CC(=O)OC (stereo not shown) [Methyl jasmenate, high rate, Methyl jasmenate]
[2]; [13]
  Mean Decay (%): 100.000%
[2]; second set of data, dipping
  Mean Decay (%): 100.000%

## [O][Cl+][O-] [Oxine 3-6 ppm alone at 80° F., chlorine dioxide]
[3]; first set of data, four groups of 25, listed as Oxine 3-8 ppm, 80° F.
  Mean Decay (%): 21.710%
[3]; second set of data, four groups of 25, listed as Oxine 5-8 ppm 80° F.
  Mean Decay (%): 21.710%
[4]
  Mean Decay (%): 14.000%

## OCl [HOCl pH 7.5, HOCl]
[2]; [13]
  Mean Decay (%): 99.000%
[2]; second set of data, dipping, listed as HOCl pH 7.5 alone
  Mean Decay (%): 99.000%

## OCl [HOCl pH 8.4, HOCl]
[2]; [13]
  Mean Decay (%): 99.000%
[2]; second set of data, dipping, listed as HOCl pH 8.4 alone
  Mean Decay (%): 99.000%

— patent publication US20020110602A1, “Method and apparatus for washing produce” (priority 2000, published 2002)
